Measurements published in US7098340B2, “Benzyl sulfonamide derivatives” (Warner Lambert Company LLC, priority 2003, dated 2006).
pIC50: −log10 of the molar value.

Target: T1, androgen receptor (Homo sapiens, UniProt P10275)
T1 sequence (P10275 1-920 Q868H): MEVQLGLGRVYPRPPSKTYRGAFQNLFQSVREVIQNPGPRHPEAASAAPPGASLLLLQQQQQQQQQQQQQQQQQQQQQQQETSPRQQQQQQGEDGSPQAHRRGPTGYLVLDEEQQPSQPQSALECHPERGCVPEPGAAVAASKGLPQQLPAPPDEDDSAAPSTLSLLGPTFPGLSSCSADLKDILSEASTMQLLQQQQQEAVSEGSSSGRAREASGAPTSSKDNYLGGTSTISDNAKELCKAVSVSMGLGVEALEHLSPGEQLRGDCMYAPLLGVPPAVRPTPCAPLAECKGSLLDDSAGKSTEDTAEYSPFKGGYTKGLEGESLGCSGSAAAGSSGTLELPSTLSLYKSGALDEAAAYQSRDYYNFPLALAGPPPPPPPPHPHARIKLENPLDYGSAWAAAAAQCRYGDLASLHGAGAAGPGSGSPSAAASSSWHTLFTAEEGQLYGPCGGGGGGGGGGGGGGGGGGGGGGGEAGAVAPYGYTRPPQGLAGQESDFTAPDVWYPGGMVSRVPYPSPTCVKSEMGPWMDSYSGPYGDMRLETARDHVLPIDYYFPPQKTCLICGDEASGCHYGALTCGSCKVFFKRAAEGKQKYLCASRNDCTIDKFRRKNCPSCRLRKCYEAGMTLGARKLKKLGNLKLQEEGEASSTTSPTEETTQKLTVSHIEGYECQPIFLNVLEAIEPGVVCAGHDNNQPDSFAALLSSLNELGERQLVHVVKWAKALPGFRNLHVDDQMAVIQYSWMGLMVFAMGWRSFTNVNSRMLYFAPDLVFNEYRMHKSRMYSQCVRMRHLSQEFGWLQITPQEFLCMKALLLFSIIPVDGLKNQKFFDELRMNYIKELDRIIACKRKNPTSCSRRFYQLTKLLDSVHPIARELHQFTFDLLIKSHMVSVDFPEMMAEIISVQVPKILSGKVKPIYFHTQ
Experiment: AR Antagonist Cell Assay (MMTV-luciferase reporter, DHT-stimulated)
Type: cell-based
Conditions: MDA-MB453-MMTV clone 54-19 cells; antagonism of 100 pM DHT, 17 hr, luciferase readout
Outline: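 MDA-MB453 cells stably carrying MMTV-ARE-firefly luciferase, in 1% charcoal-treated serum, preincubated 30 min with compound (10 uM or 1 uM) then stimulated with 100 pM DHT for 17 h at 37° C. Luminescence read; result as % inhibition of DHT fold induction.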

SMILES | pIC50
O=c1cc(C(F)(F)F)c2cc(Cc3ccc(S(=O)(=O)Nc4cccc(OC(F)F)c4)cc3)ccc2o1 [Example 143, N-(3-Difluoromethoxyphenyl)-4-(2-oxo-4-trifluoromethyl-2H-chromen-6-ylmethyl)-benzenesulfonamide] | 5.55
O=c1cc(C(F)(F)F)c2cc(Cc3ccc(S(=O)(=O)Nc4cccc(-c5cnco5)c4)cc3)ccc2o1 [Example 144, N-(3-Oxazol-5-ylphenyl)-4-(2-oxo-4-trifluoromethyl-2H-chromen-6-ylmethyl)-benzenesulfonamide] | 5.66
O=c1cc(C(F)(F)F)c2cc(Cc3ccc(S(=O)(=O)Nc4cccc(C(F)(F)F)c4)cc3)ccc2o1 [Example 145, 4-(2-Oxo-4-trifluoromethyl-2H-chromen-6-ylmethyl)-N-(3-trifluoromethylphenyl)-benzenesulfonamide] | 5.76
O=c1cc(C(F)(F)F)c2cc(Cc3ccc(S(=O)(=O)Nc4ccccc4N4CCCCC4)cc3)ccc2o1 [Example 146, 4-(2-Oxo-4-trifluoromethyl-2H-chromen-6-ylmethyl)-N-(2-piperidin-1-ylphenyl)-benzenesulfonamide] | 5.32
O=c1cc(C(F)(F)F)c2cc(Cc3ccc(S(=O)(=O)Nc4cccc(OC(F)(F)F)c4)cc3)ccc2o1 [Example 147, 4-(2-Oxo-4-trifluoromethyl-2H-chromen-6-ylmethyl)-N-(3-trifluoromethoxyphenyl)-benzenesulfonamide] | 5.07
CCOC(=O)Cc1ccc(NS(=O)(=O)c2ccc(Cc3ccc4oc(=O)cc(C(F)(F)F)c4c3)cc2)cc1 [Example 148, {4-[4-(2-Oxo-4-trifluoromethyl-2H-chromen-6-ylmethyl)-benzenesulfonylamino]-phenyl}acetic acid ethyl ester] | 5.50

Next, values leading:

pIC50 | SMILES
5.32 | O=c1cc(C(F)(F)F)c2cc(Cc3ccc(S(=O)(=O)Nc4cccc(Cc5ccccc5)c4)cc3)ccc2o1 [Example 149, N-(3-Benzylphenyl)-4-(2-oxo-4-trifluoromethyl-2H-chromen-6-ylmethyl)benzenesulfonamide]
5.14 | CCOc1ccc(NS(=O)(=O)c2ccc(Cc3ccc4oc(=O)cc(C(F)(F)F)c4c3)cc2)cc1 [Example 150, N-(4-Ethoxyphenyl)-4-(2-oxo-4-trifluoromethyl-2H-chromen-6-ylmethyl)-benzenesulfonamide]
5.76 | O=c1cc(C(F)(F)F)c2cc(Cc3ccc(S(=O)(=O)Nc4ccc(CCO)cc4)cc3)ccc2o1 [Example 151, N-[4-(2-Hydroxyethyl)phenyl]-4-(2-oxo-4-trifluoromethyl-2H-chromen-6-ylmethyl)-benzenesulfonamide]
6.11 | O=c1cc(C(F)(F)F)c2cc(Cc3ccc(S(=O)(=O)Nc4cccc(OCc5ccccc5)c4)cc3)ccc2o1 [Example 152, N-(3-Benzyloxyphenyl)-4-(2-oxo-4-trifluoromethyl-2H-chromen-6-ylmethyl)-benzenesulfonamide]
< 5.00 | CC(C)(C)c1cc(NS(=O)(=O)c2ccc(Cc3ccc4oc(=O)cc(C(F)(F)F)c4c3)cc2)cc(C(C)(C)C)c1 [Example 153, N-(3,5-Di-tert-butylphenyl)-4-(2-oxo-4-trifluoromethyl-2H-chromen-6-ylmethyl)-benzenesulfonamide]
5.22 | COc1ccc(N(Cc2ccccc2)S(=O)(=O)c2ccc(Cc3ccc4oc(=O)cc(C(F)(F)F)c4c3)cc2)cc1 [Example 154, N-Benzyl-N-(4-methoxyphenyl)-4-(2-oxo-4-trifluoromethyl-2H-chromen-6-ylmethyl)benzenesulfonamide]
5.19 | O=c1cc(C(F)(F)F)c2cc(Cc3ccc(S(=O)(=O)Nc4ccc(-n5ccc(C(F)(F)F)n5)cc4)cc3)ccc2o1 [Example 155, 4-(2-Oxo-4-trifluoromethyl-2H-chromen-6-ylmethyl)-N-[4-(3-trifluoromethylpyrazol-1-yl)phenyl]benzenesulfonamide]
5.76 | COc1cccc(NS(=O)(=O)c2ccc(Cc3ccc4oc(=O)cc(C(F)(F)F)c4c3)cc2)c1 [Example 156, N-(3-Methoxyphenyl)-4-(2-oxo-4-trifluoromethyl-2H-chromen-6-ylmethyl)benzene-sulfonamide]
